From patent publication US9999620B2, “CaMKK-β as a target for treating cancer” (Duke University, priority 2010, dated 2018)

Legend:
Format in all cases: cell-based, human
[1] = tested on: AMPK phosphorylation (T172) by CaMKKβ; assay: Western blot of phospho-AMPK; conditions: STO-609 pretreatment
Experimental: A, LNCaP cells were pretreated for 1 h+/−30 mM STO-609 prior to overnight treatment+/−10 nM R1881. Cell lysates were then subjected to western blot analysis and subsequent densitometry (right). CaMKKβ levels were normalized to GAPDH. Phospho-CaMKI (p-CaMKI) levels were normalized to total CaMKI. Phospho-AMPK (p-AMPK) levels were normalized to total AMPK. Results are expressed as fold induction/phosphorylation over double vehicle-treated cells+SE (n=3). *, significant changes from vehicle-treated cells. B, LNCaP cells stably expressing either GAL4 or CaMKKβ □were treated overnight+/−10 nM R1881. Cell lysates were then subjected as in A to western blot analysis and densitometry (right). Results are expressed as fold induction/phosphorylation over LNCaP-GAL4 vehicle-treated cells+SE (n=3). *, significant changes from LNCaP-GAL4 vehicle-treated cells. […]
A, VCaP cells were treated for 24 h+/−10 nM R1881. […] Results are expressed as fold induction/phosphorylation over vehicle-treated cells+SE (n=2). *, P<0.05 indicates significant changes from vehicle-treated cells. […]
Western blot analysis. […] For each sample, protein levels were determined by densitometry using the ImageJ software (NIH) and normalizing to indicated controls.

[2] = tested on: CaMKI phosphorylation (T177) by CaMKKβ; assay: Western blot of phospho-CaMKI (readout of CaMKKβ activity); conditions: for androgen-increased phosphorylation of CaMKI (T177): STO-609 pretreatment
Experimental: A, LNCaP cells were pretreated for 1 h with vehicle, 10 or 30 mM STO-609 prior to overnight treatment with vehicle, 100 pM or 10 nM R1881. Cell lysates were then subjected to western blot analysis and subsequent densitometry (right). Phospho-CaMKI (p-CaMKI) levels were normalized to total CaMKI. Results are expressed as fold induction/phosphorylation over double vehicle-treated cells+SE (n=2). *, P<0.05 indicates significant changes from vehicle-treated cells. ^#, P<0.05 indicates significant changes from vehicle (no STO-609)-treated cells.
A, LNCaP cells were pretreated for 1 h+/−30 mM STO-609 prior to overnight treatment+/−10 nM R1881. Cell lysates were then subjected to western blot analysis and subsequent densitometry (right). CaMKKβ levels were normalized to GAPDH. Phospho-CaMKI (p-CaMKI) levels were normalized to total CaMKI. Phospho-AMPK (p-AMPK) levels were normalized to total AMPK. Results are expressed as fold induction/phosphorylation over double vehicle-treated cells+SE (n=3). *, significant changes from vehicle-treated cells.

VCaP cells [3] = assay: Cell proliferation assay (FluoReporter Blue DNA content); conditions: +/-1 nM R1881 and +/-30 mM STO-609 on d 3, d 5, d 7, read on d 10
From the text: FIG. 6. CaMKKβ activity in androgen-mediated cell migration in prostate cancer cells. […] Cell lysates were then subjected to western blot analysis and subsequent densitometry (right). Phospho-[…]) levels were normalized to total CaMKI. Results are expressed as fold induction/phosphorylation over double vehicle-treated cells+SE (n=2). *, P<0.05 indicates significant changes from vehicle-treated cells. ^#, P<0.05 indicates significant changes from vehicle (no STO-609)-treated cells. B, VCaP cells were plated in 96-well plates and grown for 3 d. […] On d 10, cells were lysed and the relative number of cells was measured with the fluorescent DNA binding dye FluoReporter Blue. Each sample was performed in triplicate, and results from a representative experiment are shown. […] Cells were then dissociated and reseeded into the top chamber for a Boyden dual chamber migration assay. […] After 16 h, migrated cells were fixed, stained with crystal violet and counted in three different microscopic fields and added together. […] Proliferation assays were performed as previously described (12) by measuring the cellular DNA content using the FluoReporter Blue Fluorometric double-stranded DNA Quantitation Kit (Invitrogen) as per the manufacturer's protocol.

LNCaP cells = assay: Matrigel extracellular matrix invasion assay; conditions: 1 h +/-30 mM STO-609, overnight +/-10 nM R1881
Experimental: FIG. 7. CaMKKβ activity in the androgen-mediated migration and invasion of prostate cancer cells. A, LNCaP cells were plated in 96-well plates and grown for 3 d. […] On d 10, cells were lysed and the relative number of cells was measured with the fluorescent DNA binding dye FluoReporter Blue. Each sample was performed in triplicate, and results from a representative experiment are shown. […] Cells were then dissociated and reseeded into the top chamber for a Boyden migration or Matrigel extracellular matrix invasion assay. Fresh medium with the corresponding treatments was added to the top and bottom chambers while either no chemoattractant or 5% FBS (serum) was added to the bottom chamber. After 16 h, migrated cells were fixed, stained and counted in three different microscopic fields and added together. […] C top, LNCaP cells were transfected with indicated siRNAs. […] D right, LNCaP cells stably expressing either GAL4 (control) or CaMKKβ were subjected to a migration assay as described in B using +/−5% FBS as chemoattractant. The results are expressed as mean+SE (n=3). *, significant changes from LNCaP-GAL4 cells. D left, western blot confirming CaMKKβ […]expression. Migration and invasion assays. Boyden dual chamber migration assays were performed as previously described (4). […]

VCaP cells [4] = assay: Boyden dual chamber migration assay; conditions: 1 h +/-30 mM STO-609, overnight +/-10 nM R1881, 16 h migration, 5% FBS chemoattractant
From the text: FIG. 6. CaMKKβ activity in androgen-mediated cell migration in prostate cancer cells. […] Cell lysates were then subjected to western blot analysis and subsequent densitometry (right). Phospho-[…]) levels were normalized to total CaMKI. Results are expressed as fold induction/phosphorylation over double vehicle-treated cells+SE (n=2). *, P<0.05 indicates significant changes from vehicle-treated cells. ^#, P<0.05 indicates significant changes from vehicle (no STO-609)-treated cells. B, VCaP cells were plated in 96-well plates and grown for 3 d. […] On d 10, cells were lysed and the relative number of cells was measured with the fluorescent DNA binding dye FluoReporter Blue. Each sample was performed in triplicate, and results from a representative experiment are shown. […] Cells were then dissociated and reseeded into the top chamber for a Boyden dual chamber migration assay. Fresh medium with the corresponding treatments was added to the top and bottom chambers while either no chemoattractant or 5% FBS (serum) was added to the bottom chamber. After 16 h, migrated cells were fixed, stained with crystal violet and counted in three different microscopic fields and added together. […]

## O=C(O)c1ccc2c3c1cccc3c(=O)n1c3ccccc3nc21 [STO-609]
[1]; LNCaP, 10 nM R1881
  androgen-increased phosphorylation of AMPK (T172): reversed
[1]; VCaP
  androgen-increased phosphorylation of AMPK (T172): reversed
[2]; LNCaP, 1 h pretreatment with 10 or 30 mM STO-609, then overnight 100 pM or 10 nM R1881
  CaMKKβ activity (phospho-CaMKI levels): suppressed CaMKKβ activity
[2]; LNCaP, 10 nM R1881
  androgen-increased phosphorylation of CaMKI (T177): reversed
[2]; VCaP
  androgen-increased phosphorylation of CaMKI (T177): reversed
VCaP cells [3]
  effect on cell number (androgen-mediated cellular growth): no significant effect
LNCaP cells
  androgen-mediated invasion through Matrigel extracellular matrix: inhibited androgen-mediated invasion
VCaP cells [4]
  androgen-mediated migration: blocked the androgen-mediated migration
